# Experimental data from patent US11512053B2, “Arginine methyltransferase inhibitors and uses thereof” (priority 2013, dated 2022).
# pIC50: −log10 of the molar value.
# Target: full-length human PRMT6 (Flag- and His-tagged) (Homo sapiens, UniProt Q96LA8)
# Test: PRMT6 Biochemical Assay (3H-SAM Flashplate, peptide substrate)
# Settings: single experiment or average of multiple experiments; read-out: Biochemical IC50 PRMT6
# How it was run: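 Flag/His-tagged full-length human PRMT6 (1 nM) preincubated with compound 30 min at room temperature in Bicine pH 7.6 buffer, then reaction started with 3H-SAM 200 nM plus unlabeled SAM 250 nM and biotinylated H4 36-50 peptide (K44me1) 75 nM; 2% DMSO. Quenched with 400 uM cold SAM; labeled peptide captured on streptavidin Flashplate, counted; % inhibition vs DMSO and 1 mM SAH controls fit by 3- or 4-parameter curve.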
# full-length human PRMT6 (Flag- and His-tagged), sequence (Q96LA8 with tags, fused parts or gaps): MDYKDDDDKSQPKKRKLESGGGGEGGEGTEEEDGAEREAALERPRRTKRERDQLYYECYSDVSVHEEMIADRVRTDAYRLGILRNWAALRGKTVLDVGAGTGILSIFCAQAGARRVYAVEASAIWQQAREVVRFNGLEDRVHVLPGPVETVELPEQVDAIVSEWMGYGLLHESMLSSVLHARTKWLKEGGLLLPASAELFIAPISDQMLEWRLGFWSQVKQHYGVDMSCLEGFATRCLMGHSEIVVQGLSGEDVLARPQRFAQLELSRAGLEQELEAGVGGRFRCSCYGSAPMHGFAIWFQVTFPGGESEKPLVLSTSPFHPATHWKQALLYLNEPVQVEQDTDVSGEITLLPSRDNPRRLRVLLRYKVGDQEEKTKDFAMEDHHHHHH
compound,measurement,value
CNCCN(C)Cc1c[nH]nc1C#Cc1ccccc1 [Compound 3],pIC50,7.70
